Measurements taken from patent US20210177892A1, “PREVENTION AND TREATMENT OF INFECTIOUS DISEASE USING LOW CONCENTRATION HYPOCHLOROUS ACID SOLUTIONS” (Wonder Spray, LLC, priority 2019, published 2021).

Tests used:
[1] = inhalation; cited from earlier work
E. coli = settings: 50 mM (2.6 ppm), within 5 minutes; cited from earlier work
f2 RNA = settings: cited from earlier work
[2] = test system: Streptococcus pyogenes ATCC 49399; experiment: Kill Time Study, Streptococcus pyogenes; type: cell-based; settings: FIG. 4
Experimental: (§1) For example, FIG. 3 and FIG. 4 illustrate tables of the effect of a solution of HOCl on Streptococcus pneumoniae and Streptococcus pyogenes, respectively. The organisms in this test were prepared by inoculating the surface of about 5% Sheep blood agar plates, incubated at about 30 to 35° C. for 18 to 24 hours. Following the incubation period, the plates were washed with sterile Serological Saline Solution to harvest the microorganisms used and dilutions with Saline were made, plated on blood agar and incubated at 30 to 35° C. for 24-48 hours to determine the concentration. The inoculum level was then adjusted to […] for use as a stock suspension. Stock suspensions were well mixed and homogenized at each inoculation interval.
(§2) Positive controls were performed at initiation and completion by spread plating to enumerate inoculum levels and verify culture purity during testing and Negative controls were performed to establish sterility of media, reagents, and materials used at initiation. Neutralizer Suitability using Modified Letheen Broth (MLB) was performed concurrently with Kill Time testing to confirm the recovery of <100 CFU of the test organism in the subculture media in the presence of product. Duplicate 10 ml containers for each treated specimen or material concentration was prepared, equilibrated to 25±2° C., and 0.1 ml of inoculum is added to each container to achieve a final concentration of 10^6 cfu/ml.
(§3) Serial dilutions from each replicate were made at intervals of 15 second, 30 second, 1 minute and 5 minutes using 1 ml of the inoculated test product into 9 ml MLB from 1:10 to 1:1000000. Subsequently, 1 ml from each dilution was spread plated on 5% Sheep Blood agar plate in duplicate, incubated at 30 to 35° C. for 48 hours. After the incubation period, all plates were counted to determine the number of microorganisms, results are averaged and reported as log 10 reductions.

[3] = test system: Streptococcus pneumoniae ATCC 49619; experiment: Kill Time Study, Streptococcus pneumoniae; type: cell-based; settings: FIG. 3
Experimental: as §1, §2, §3

OCl [HOCl, Hypochlorous acid]
adverse effects of inhaling the aerosolized form [1]: no adverse effects
inhibition of DNA synthesis in E. coli (E. coli): ninety-six
inhibition of the growth of E. coli (E. coli): completely inhibited the growth
inactivation of naked f2 RNA compared with RNA in intact phage (f2 RNA): inactivated naked f2 RNA at the same rate as RNA in intact phage
time in which bacteria that cause strep throat are effectively killed [2]: less than 15 seconds
cfu/ml of Streptococcus pyogenes after the HOCl solution was applied ([2]; after fifteen seconds): less than 10 cfu/ml
log 10 reduction for Streptococcus pyogenes ([2]; after fifteen seconds): 6.086 log 10
percent reduction for Streptococcus pyogenes ([2]; after fifteen seconds): 99.99%
time in which bacteria that cause pneumonia are effectively killed [3]: less than 15 seconds
cfu/ml of Streptococcus pneumoniae after the HOCl solution was applied ([3]; after fifteen seconds): less than 10 cfu/ml
log 10 reduction for Streptococcus pneumoniae ([3]; after fifteen seconds): 6.057 log 10
percent reduction for Streptococcus pneumoniae ([3]; after fifteen seconds): 99.99%
